Data taken from EP1202975B1, “SUBSTITUTED POLYCYCLIC ARYL AND HETEROARYL PYRAZINONES USEFUL FOR SELECTIVE INHIBITION OF THE COAGULATION CASCADE” (Pharmacia Corporation, priority 1999, dated 2000).

Each molecule was assayed against T1, TF-VIIa (Homo sapiens, UniProt P08709) (assay: TF-VIIa Assay). Conditions: 100 µM.
T1 construct: 2nM recombinant human factor VIIa; purchased American Diagnostica, Greenwich CT; host or cells: soluble TF made in house in E. coli
Type: biochemical

T1 sequence (P08709 213-466 limits assumed): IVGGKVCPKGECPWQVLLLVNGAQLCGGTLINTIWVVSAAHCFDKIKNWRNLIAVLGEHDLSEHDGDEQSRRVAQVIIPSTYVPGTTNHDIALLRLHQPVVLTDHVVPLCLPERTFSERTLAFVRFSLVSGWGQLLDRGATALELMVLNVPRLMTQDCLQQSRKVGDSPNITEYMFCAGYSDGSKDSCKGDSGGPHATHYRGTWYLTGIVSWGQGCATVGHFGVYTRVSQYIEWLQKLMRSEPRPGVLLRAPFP
T1 sequence (P08709 61-212 limits assumed): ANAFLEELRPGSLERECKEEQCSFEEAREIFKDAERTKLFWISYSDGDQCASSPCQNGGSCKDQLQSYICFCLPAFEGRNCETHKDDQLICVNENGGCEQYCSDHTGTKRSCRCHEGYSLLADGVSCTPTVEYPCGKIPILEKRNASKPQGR
T1 sequence (P13726 33-251 partner limits assumed): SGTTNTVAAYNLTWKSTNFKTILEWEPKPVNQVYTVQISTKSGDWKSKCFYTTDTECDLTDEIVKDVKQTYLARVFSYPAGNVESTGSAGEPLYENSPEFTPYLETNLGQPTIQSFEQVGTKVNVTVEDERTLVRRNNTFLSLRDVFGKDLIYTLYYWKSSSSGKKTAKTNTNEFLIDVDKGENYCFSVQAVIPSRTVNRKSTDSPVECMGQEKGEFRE

Row | Structure (SMILES) | % Inhibition TF-VIIa (100 µM) [%]
1 | O=C(Cn1c(-c2ccc(Cl)cc2)c(Cl)nc(NCc2ccccc2)c1=O)NCCc1ccncc1 [Example E-0017] | 0
2 | O=C(Cn1c(-c2ccc(Cl)cc2)c(Cl)nc(NCCc2ccccc2)c1=O)NCCc1ccncc1 [Example E-0018] | 1
3 | O=C(Cn1c(-c2ccc(Cl)cc2)c(Cl)nc(NCCc2cccc(Cl)c2)c1=O)NCCc1ccncc1 [Example E-0019] | 0
4 | O=C(Cn1c(-c2ccc(Cl)cc2)c(Cl)nc(NCCc2ccc(Cl)cc2)c1=O)NCCc1ccncc1 [Example E-0020] | 0
5 | O=C(Cn1c(-c2ccc(Cl)cc2)c(Cl)nc(NCCc2cccnc2)c1=O)NCCc1ccncc1 [Example E-0021] | 0
6 | O=C(Cn1c(-c2ccc(Cl)cc2)c(Cl)nc(NCCc2ccncc2)c1=O)NCCc1ccncc1 [Example E-0022] | 0
7 | O=C(Cn1c(-c2ccc(Cl)cc2)c(Cl)nc(NCCN2CCOCC2)c1=O)NCCc1ccncc1 [Example E-0023] | 0
8 | O=C(Cn1c(-c2ccc(Cl)cc2)c(Cl)nc(NCc2ccncc2)c1=O)NCCc1ccncc1 [Example E-0024] | 0
9 | O=C(Cn1c(-c2ccc(Cl)cc2)c(Cl)nc(NCc2ccccc2)c1=O)NCCc1ccncc1 [Example E-0025] | 0
10 | O=C(Cn1c(-c2ccc(Cl)cc2)c(Cl)nc(NCCc2ccccc2)c1=O)NCCc1ccncc1 [Example E-0026] | 0
11 | O=C(Cn1c(-c2ccc(Cl)cc2)c(Cl)nc(NCCc2ccc(Cl)cc2)c1=O)NCCc1ccncc1 [Example E-0028] | 0
12 | O=C(Cn1c(-c2ccc(Cl)cc2)c(Cl)nc(NCCc2cccnc2)c1=O)NCCc1ccncc1 [Example E-0029] | 0
13 | O=C(Cn1c(-c2ccc(Cl)cc2)c(Cl)nc(NCCc2ccncc2)c1=O)NCCc1ccncc1 [Example E-0030] | 0
14 | O=C(Cn1c(-c2ccc(Cl)cc2)c(Cl)nc(NCc2ccncc2)c1=O)NCCc1ccncc1 [Example E-0032] | 0
15 | COc1ccc(-c2c(Cl)nc(NCCc3ccccc3)c(=O)n2CC(=O)NCCc2ccncc2)cc1 [Example E-0034] | 0
16 | COc1ccc(-c2c(Cl)nc(NCCc3cccc(Cl)c3)c(=O)n2CC(=O)NCCc2ccncc2)cc1 [Example E-0035] | 4
17 | COc1ccc(-c2c(Cl)nc(NCCc3ccc(Cl)cc3)c(=O)n2CC(=O)NCCc2ccncc2)cc1 [Example E-0036] | 0
18 | O=C(Cn1c(-c2ccc(-c3ccccc3)cc2)c(Cl)nc(NCc2ccccc2)c1=O)NCCc1ccncc1 [Example E-0049] | 2
19 | O=C(Cn1c(-c2ccc(-c3ccccc3)cc2)c(Cl)nc(NCCc2ccccc2)c1=O)NCCc1ccncc1 [Example E-0050] | 0
20 | O=C(Cn1c(-c2ccc(-c3ccccc3)cc2)c(Cl)nc(NCCc2ccc(Cl)cc2)c1=O)NCCc1ccncc1 [Example E-0052] | 0
21 | O=C(Cn1c(-c2cccc(Cl)c2)c(Cl)nc(NCc2ccccc2)c1=O)NCCc1ccncc1 [Example E-0073] | 0

Row | Structure (SMILES) | % Inhibition TF-VIIa (100 µM) [%]
22 | O=C(Cn1c(-c2cccc(Cl)c2)c(Cl)nc(NCc2ccccc2)c1=O)NCCc1cccnc1 [Example E-0074] | 0
23 | O=C(Cn1c(-c2cccc(Cl)c2)c(Cl)nc(NCCc2ccccc2)c1=O)NCCc1ccncc1 [Example E-0076] | 0
24 | O=C(Cn1c(-c2cccc(Cl)c2)c(Cl)nc(NCCc2ccccc2)c1=O)NCCc1cccnc1 [Example E-0077] | 0
25 | O=C(Cn1c(-c2cccc(Cl)c2)c(Cl)nc(NCCc2cccc(Cl)c2)c1=O)NCCc1ccncc1 [Example E-0079] | 0
26 | O=C(Cn1c(-c2cccc(Cl)c2)c(Cl)nc(NCCc2cccc(Cl)c2)c1=O)NCCc1cccnc1 [Example E-0080] | 1
27 | O=C(Cn1c(-c2cccc(Cl)c2)c(Cl)nc(NCCc2ccc(Cl)cc2)c1=O)NCCc1ccncc1 [Example E-0082] | 4
28 | O=C(Cn1c(-c2cccc(Cl)c2)c(Cl)nc(NCCc2ccc(Cl)cc2)c1=O)NCCc1cccnc1 [Example E-0083] | 2
29 | O=C(Cn1c(-c2cccc(Cl)c2)c(Cl)nc(NCc2ccccc2)c1=O)NCCc1ccncc1 [Example E-0085] | 0
30 | O=C(Cn1c(-c2cccc(Cl)c2)c(Cl)nc(NCc2ccccc2)c1=O)NCCc1cccnc1 [Example E-0086] | 0
31 | O=C(Cn1c(-c2cccc(Cl)c2)c(Cl)nc(NCCc2ccccc2)c1=O)NCCc1ccncc1 [Example E-0088] | 0
32 | O=C(Cn1c(-c2cccc(Cl)c2)c(Cl)nc(NCCc2ccccc2)c1=O)NCCc1cccnc1 [Example E-0089] | 3
33 | O=C(Cn1c(-c2cccc(Cl)c2)c(Cl)nc(NCCc2cccc(Cl)c2)c1=O)NCCc1ccncc1 [Example E-0091] | 1
34 | O=C(Cn1c(-c2cccc(Cl)c2)c(Cl)nc(NCCc2cccc(Cl)c2)c1=O)NCCc1cccnc1 [Example E-0092] | 1
35 | O=C(Cn1c(-c2cccc(Cl)c2)c(Cl)nc(NCCc2ccc(Cl)cc2)c1=O)NCCc1ccncc1 [Example E-0094] | 2
36 | O=C(Cn1c(-c2cccc(Cl)c2)c(Cl)nc(NCCc2ccc(Cl)cc2)c1=O)NCCc1cccnc1 [Example E-0095] | 2
37 | COc1ccc(-c2c(Cl)nc(NCCc3cccc(Cl)c3)c(=O)n2CC(=O)NCCc2ccncc2)cc1 [Example E-0103] | 2
38 | COc1ccc(-c2c(Cl)nc(NCCc3ccc(Cl)cc3)c(=O)n2CC(=O)NCCc2ccncc2)cc1 [Example E-0106] | 5
39 | O=C(Cn1c(-c2ccc(-c3ccccc3)cc2)c(Cl)nc(NCc2ccccc2)c1=O)NCCc1ccncc1 [Example E-0109] | 2
40 | O=C(Cn1c(-c2ccc(-c3ccccc3)cc2)c(Cl)nc(NCCc2ccccc2)c1=O)NCCc1ccncc1 [Example E-0112] | 11
41 | O=C(Cn1c(-c2ccc(-c3ccccc3)cc2)c(Cl)nc(NCCc2ccc(Cl)cc2)c1=O)NCCc1ccncc1 [Example E-0118] | 12

Same assay, conditions: cells given as a plain number (IC50); read-out: IC50 or % Inhibition TF-VIIa (30 µM)

Row | Structure (SMILES) | IC50 [µM]
42 | Cc1c(Cl)nc(NCCc2ccccc2)c(=O)n1CC(=O)NCc1ccc(C(=N)N)cc1 [1471-7] | 4.28
43 | N=C(N)c1ccc(CNC(=O)Cn2c(-c3ccccc3)c(Cl)nc(NCCc3cccc(Cl)c3)c2=O)cc1 [1471-14] | 0.18
44 | Nc1cccc(-c2c(Cl)nc(NC3CCC3)c(=O)n2CC(=O)NCc2ccc(C3=NCCN3)cc2)c1 [Example 27] | 12.5
45 | NCc1ccc(CNC(=O)Cn2c(-c3cccc(N)c3)c(Cl)nc(NC3CCC3)c2=O)cc1 [Example 28] | 3

Same assay, conditions: read-out: IC50 or % Inhibition TF-VIIa (30 µM); cells given as a plain number (IC50)

Row | Structure (SMILES) | IC50 [µM]
46 | Cc1c(Cl)nc(NCc2ccccc2)c(=O)n1CC(=O)NCc1ccc(C(=N)N)cc1 [1471-1] | 8.17
47 | Cc1c(Cl)nc(NCCc2ccc(Cl)cc2)c(=O)n1CC(=O)NCc1ccc(C(=N)N)cc1 [1471-2] | 3.62
48 | Cc1c(Cl)nc(NCc2ccncc2)c(=O)n1CC(=O)NCc1ccc(C(=N)N)cc1 [1471-3] | 13.6
49 | Cc1c(Cl)nc(NCCN2CCOCC2)c(=O)n1CC(=O)NCc1ccc(C(=N)N)cc1 [1471-4] | 29.4
50 | Cc1c(Cl)nc(NCCc2ccncc2)c(=O)n1CC(=O)NCc1ccc(C(=N)N)cc1 [1471-5] | 8.69
51 | Cc1c(Cl)nc(NCCc2cccc(Cl)c2)c(=O)n1CC(=O)NCc1ccc(C(=N)N)cc1 [1471-6] | 2.85
52 | Cc1c(Cl)nc(NCCc2cccnc2)c(=O)n1CC(=O)NCc1ccc(C(=N)N)cc1 [1471-8] | 3.86
53 | N=C(N)c1ccc(CNC(=O)Cn2c(-c3ccc(Cl)cc3)c(Cl)nc(NCc3ccccc3)c2=O)cc1 [1471-17] | 11
54 | N=C(N)c1ccc(CNC(=O)Cn2c(-c3ccc(Cl)cc3)c(Cl)nc(NCCc3ccncc3)c2=O)cc1 [1471-21] | 8.18
55 | N=C(N)c1ccc(CNC(=O)Cn2c(-c3ccc(Cl)cc3)c(Cl)nc(NCCc3cccnc3)c2=O)cc1 [1471-24] | 10

Same assay, conditions: read-out: IC50 or % Inhibition TF-VIIa (30 µM); cells without % sign: IC50

Row | Structure (SMILES) | IC50 [µM]
56 | N=C(N)c1ccc(CNC(=O)Cn2c(-c3cccc(N)c3)c(Cl)nc(NCCN3CCCC3)c2=O)c(F)c1 [1543-37] | 1.23

These molecules were tested against Human factor Xa (Homo sapiens, UniProt P00742) (assay: not given). Conditions: not given.
Chain of Human factor Xa (P00742 235-488 limits assumed): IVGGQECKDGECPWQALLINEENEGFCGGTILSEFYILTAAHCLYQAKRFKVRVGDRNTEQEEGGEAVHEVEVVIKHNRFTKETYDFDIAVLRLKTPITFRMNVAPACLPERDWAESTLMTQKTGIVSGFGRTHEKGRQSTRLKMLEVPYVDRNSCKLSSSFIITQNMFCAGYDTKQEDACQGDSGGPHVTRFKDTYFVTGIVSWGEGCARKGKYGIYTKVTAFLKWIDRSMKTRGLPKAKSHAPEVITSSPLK
Chain of Human factor Xa (P00742 41-179 limits assumed): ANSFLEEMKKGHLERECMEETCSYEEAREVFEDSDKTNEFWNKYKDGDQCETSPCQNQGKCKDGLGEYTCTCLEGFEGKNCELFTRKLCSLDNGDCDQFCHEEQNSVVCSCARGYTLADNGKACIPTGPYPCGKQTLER

Row | Structure (SMILES) | IC50 or % Inhibition Factor Xa (30 µM) [%] | % Inhibition Factor Xa (100 µM) [%]
57 | Cc1c(Cl)nc(NCc2ccccc2)c(=O)n1CC(=O)NCc1ccc(C(=N)N)cc1 [1471-1] | 10 | 
58 | Cc1c(Cl)nc(NCCc2ccc(Cl)cc2)c(=O)n1CC(=O)NCc1ccc(C(=N)N)cc1 [1471-2] | 10 | 
59 | Cc1c(Cl)nc(NCc2ccncc2)c(=O)n1CC(=O)NCc1ccc(C(=N)N)cc1 [1471-3] | 0 | 
60 | Cc1c(Cl)nc(NCCN2CCOCC2)c(=O)n1CC(=O)NCc1ccc(C(=N)N)cc1 [1471-4] | 0 | 
61 | Cc1c(Cl)nc(NCCc2ccncc2)c(=O)n1CC(=O)NCc1ccc(C(=N)N)cc1 [1471-5] | 12 | 
62 | Cc1c(Cl)nc(NCCc2cccc(Cl)c2)c(=O)n1CC(=O)NCc1ccc(C(=N)N)cc1 [1471-6] | 14 | 
63 | Cc1c(Cl)nc(NCCc2ccccc2)c(=O)n1CC(=O)NCc1ccc(C(=N)N)cc1 [1471-7] | 4 | 
64 | Cc1c(Cl)nc(NCCc2cccnc2)c(=O)n1CC(=O)NCc1ccc(C(=N)N)cc1 [1471-8] | 27 | 
65 | O=C(Cn1c(-c2ccc(-c3ccccc3)cc2)c(Cl)nc(NCCc2cccc(Cl)c2)c1=O)NCCc1cccnc1 [Example E-0116] |  | 4
66 | O=C(Cn1c(-c2ccc(-c3ccccc3)cc2)c(Cl)nc(NCCc2ccc(Cl)cc2)c1=O)NCCc1cccnc1 [Example E-0119] |  | 5
